The test system of one data set is CCRF-CEM cells. Put plainly: Viable cell counts (trypan blue) of CCRF-CEM cells treated with asparaginase and other agents. The class given is cell-based, human. The note with it: for effect on Wnt-induced sensitization to asparaginase: shRNA-transduced cells, rapamycin 1 nM, RAD001 10 nM, AZD2014 10 nM; for sensitization to asparaginase by isoform-selective GSK3 inhibitor: 8 days (FIG. 4a). Here is the method:
(§1) Cells (25,000 per well) were seeded in 100 μl of complete growth medium in 96-well plates and incubated with chemotherapeutic agents or vehicle. T-ALL cells were split every 48 hours in a 1:5 ratio. Briefly, 20 μl of cells were mixed with 80 μl fresh culture medium, supplemented with vehicle or chemotherapeutic drugs at the indicated doses. AML cells were split every 72 hours as described above. Cell viability was assessed by counting viable cells based on trypan blue vital dye staining (Invitrogen), according to the manufacturer's instructions. Chemotherapeutic drugs included: PEG-asparaginase (“oncaspar”, Shire, Lexington, MA), dexamethasone (Sigma-Aldrich), vincristine (Selleckchem, Houston, TX), doxorubicin (Sigma-Aldrich), 6-mercaptopurine (Abcam, Cambridge, UK), CHIR99021 (Selleckchem), bortezomib (Selleckchem), rapamycin (Selleckchem), RAD001 (Selleckchem), AZD2014 (Selleckchem), and Wnt3A (R&D systems, Minneapolis, MN). BRD0705 and […] were synthesized as described^15. Caspase 3/7 activity was assessed using the Caspase Glo 3/7 Assay (Promega, Madison, WI) according to the manufacturer's instructions.

Data set [1] concerns APC-mutant CRC patient-derived xenograft. In words: APC-mutant human CRC patient-derived xenograft in nude mice. The note with it: asparaginase 1000 U/kg×1 dose; BRD0705 every 12 hours×21 days. The format is in vivo, mouse. Here is the method:
For implantation of APC mutant human CRC PDX, patient tumor material was collected in PBS and kept on wet ice for engraftment within 24 h after resection. Upon arrival, necrotic and supporting tissues were carefully removed using a surgical blade. Approximately 1 mm×1 mm tissue fragments were implanted subcutaneously into the flank region of male nude mice, as described (Bullman et al., 2017). For injection of intestinal organoids (Rspo3; p53; Kras, or Apc; p53; Kras), per mouse one full […] well of organoids was injected subcutaneously.
As soon as tumors reached a volume of approximately 150 mm3, treatment of mice was begun. […] Vehicle was formulated as previously described (Wagner et al., 2018).
After start of treatment, body weight and tumor size were evaluated every other day. Tumor size was assessed by caliper measurements and the approximate volume of the mass was calculated using the formula (l×w×w)×(π/6), where 1 is the major tumor axis and w is the minor tumor axis.

For the next data set, the system named is HCT-15 cells. In words: Chemotherapy response of colon cancer cell lines (trypan blue counts), HCT-15. The class given is cell-based, human. The following applies: 10 days; Rspondin3 75 ng/ml and Wnt3a 100 ng/ml; inhibitors 1 μM. Here is the method:
(§2) Cells (100,000 per well) were seeded in […] of complete growth medium in 12-well plates and incubated with chemotherapeutic agents or vehicle. Cells were split every 48 hours and cell viability was assessed by counting viable cells based on trypan blue vital dye staining (Invitrogen), according to the manufacturer's instructions. Chemotherapeutic drugs included: asparaginase (pegaspargase, Shire, Lexington, MA), CHIR99021 (Selleckchem), recombinant human Wnt3A protein (R&D systems, Minneapolis, MN) and recombinant human R-Spondin 3 protein (R&D systems, Minneapolis, MN). BRD0705 and BRD3731 were synthesized as described (Wagner et al., 2018). Caspase 3/7 activity was assessed using the Caspase Glo 3/7 Assay (Promega, Madison, WI) according to the manufacturer's instructions.

Another data set has as its system Apc-deficient organoids. In words: Chemotherapy response in mouse intestinal organoids, Apc-deficient. The class given is cell-based. The following applies: asparaginase 100 U/L, BRD0705 1 μM or both, 10 days. Here is the method:
For assessment of chemotherapy response in mouse intestinal organoids, Apc-deficient and Rspo3 fusion organoids were cultured in basal organoid medium (medium not containing murine Wnt3A, murine Noggin and human R-spondin1 protein). A full 0.95 cm2 well of organoids was split into new wells, aiming to obtain approximately 25 organoids per well. Organoids were split according to previously published protocols (O'Rourke et al., 2016). Matrigel and basal organoid culture medium were supplemented with vehicle or chemotherapeutic agents, and split every 48 hours. After 10 days in culture, total organoid numbers per wells were counted by light microscopy. Microscopy was performed using an 100× objective on an Axio Imager A1 microscope (Zeiss, Oberkochen, Germany), with images captured using a CV-A10 digital camera (Jai, Yokohama, Japan) and Cytovision software (Leica Biosystems, Wetzlar, Germany).
Organoids touching the edge of a well were excluded from counting. Images were taken from a representative of three independent experiments and analyzed with ImageJ Software (Schneider et al., 2012).

For data set [2], the system named is asparaginase-resistant T-ALL patient-derived xenograft. In words: T-ALL patient-derived xenograft in NRG mice, survival. The format is in vivo, mouse. Here is the method: Mice were exposed to a sub-lethal dose of radiation (4.5 Gy) and subsequently injected with human leukemia cells. All injections were performed by tail vein injection. Blood collections were performed to monitor leukemia onset in mice injected with leukemic cells, which was assessed by staining for human CD45 expression using anti-human CD45-PE-Cy7 (1:400, BD #560915) antibody staining. As soon as leukemia engraftment was confirmed based on ≥5% human leukemia cells in the peripheral blood, treatment of mice was begun. Asparaginase (1,000 U/kg) or PBS were injected by tail vein injection as a single dose on day 1 of drug treatment, and BRD0705 (15 mg/kg) or vehicle were given every 12 hours for 12 days by oral gavage. Vehicle was formulated as previously described.^15 Mice were anesthetized with isoflurane (Patterson Veterinary, Greeley, CO) prior to gavage. After start of treatment, body weight was monitored every third day. To assess bilirubin levels, mandibular blood vein collection was performed, and bilirubin levels were measured in the Boston Children's Hospital clinical laboratory. The primary endpoint of this experiment was survival. Mice were euthanized as soon as they developed weight loss greater than 15% or signs/symptoms of progressing disease. Post-mortem analysis of leukemic burden was performed by extracting bone marrow cells, which were filtered through a […] mesh filter and red blood cells were lysed using the BD Biosciences Red Blood Cell Lysis reagent (BD #555899). Isolated bone marrow cells were stained for assessment of leukemic burden using following antibodies from BD Biosciences: Anti-human CD4-APC-Cy7 (1:100, BD #561839) and anti-human CD8-PerCP-Cy5.5 (1:100, BD #560662).
For orientation: A xenograft is tissue or cells of one species grown in another, often human tumour cells in immunodeficient mice.

The subject of the next data set is SW-480 cells. In words: Chemotherapy response of colon cancer cell lines (trypan blue counts), SW-480. The format is cell-based, human. The note with it: 10 days; Rspondin3 75 ng/ml and Wnt3a 100 ng/ml; inhibitors 1 μM. Here is the method:
as §2

The test system of data set [3] is normal human CD34+ hematopoietic progenitors. In words: Viable cell counts of normal CD34+ hematopoietic progenitors. The class given is cell-based. The following applies: CHIR99021 1 μM, day 4. The source says:
Cell lines and cell culture. 293T cells, T-ALL cell lines, AML cell lines and B-ALL cell lines were obtained from ATCC (Manassas, VA, USA), DSMZ (Braunschweig, Germany), the A. Thomas Look laboratory (Boston, MA, USA) or Alex Kentsis laboratory (New York, NY, USA) and cultured in DMEM, RPMI 1640 or MEM alpha (Thermo Fisher Scientific) with 10% or 20% fetal bovine serum (FBS, Sigma-Aldrich, Saint Louis, MO) or TET system approved FBS (Clontech, Mountain View, CA) and 1% penicillin/streptomycin (Thermo Fisher Scientific) at 37° C., 5% CO2. Human CD34+ progenitor cells from mobilized peripheral blood of healthy donors were obtained from Fred Hutchinson Cancer Research Center (Seattle, WA, USA) (e.g., found on the world wide web at sharedresources.fredhutch.org/products/cd34-cells). […]
Cells (25,000 per well) were seeded in 100 μl of complete growth medium in 96-well plates and incubated with chemotherapeutic agents or vehicle. […] Cell viability was assessed by counting viable cells based on trypan blue vital dye staining (Invitrogen), according to the manufacturer's instructions. […] Caspase 3/7 activity was assessed using the Caspase Glo 3/7 Assay (Promega, Madison, WI) according to the manufacturer's instructions.

Another data set concerns CCD-841 cells. Put plainly: Viable cell counts of normal colonic epithelium cells. The class given is cell-based, human. The note with it: CHIR99021 1 μM, 10 days. Here is the method: as §2
Data set [4] relates to T-ALL, acute myeloid leukemia and hypodiploid B-ALL cell lines. Put plainly: Asparaginase sensitization across a panel of treatment-resistant acute leukemia cell lines (trypan blue counts). The format is cell-based, human. The following applies: CHIR99021 1 μM, 8 days. Here is the method: as §1

For the molecule `CNC(=O)c1cccc(-c2ccc3c(N4CCOC[C@@H]4C)nc(N4CCOC[C@@H]4C)nc3n2)c1` [AZD2014], the “effect on Wnt-induced sensitization to asparaginase” value with CCRF-CEM cells (8 days) was “had no effect”.
Regarding `CC[C@@]1(c2ccccc2)C2=C(CC(C)(C)CC2=O)Nc2[nH]ncc21` [BRD0705], the “sensitization to asparaginase by isoform-selective GSK3 inhibitor” value in the data set on CCRF-CEM cells is recorded as “effectively sensitizes”. Moreover, in data set [1], the “activity on tumor growth” value was “no activity”. Further, the sensitization to asparaginase result in the data set on HCT-15 cells and in the data set on SW-480 cells was “sensitized” in each case. Also, the “toxicity to organoids (viable organoid count)” value in the data set with Apc-deficient organoids was “little toxicity”. For the same molecule, in [2] (FIG. 4D, Kaplan-Meier), the “difference in survival between vehicle and monotherapy groups (log-rank)” value was “not significant”. The “efficacy against xenograft (survival)” value in data set [2] (asparaginase 1,000 U/kg i.v. single dose, BRD0705 15 mg/kg oral gavage every 12 hours for 12 days) is given as “highly resistant”.
In the case of `CC(C)(C)Cc1[nH]nc2c1[C@](C)(c1ccccc1)C1=C(CC(C)(C)CC1=O)N2` [BRD3731], the “sensitization to asparaginase by isoform-selective GSK3 inhibitor” value with CCRF-CEM cells was “only modest effects”. The sensitization to asparaginase entry in the data set on HCT-15 cells and with SW-480 cells was “had little effect” in each case.
For `Cc1c[nH]c(-c2cnc(NCCNc3ccc(C#N)cn3)nc2-c2ccc(Cl)cc2Cl)n1` [CHIR99021], in [3], the “toxicity of asparaginase to normal progenitors with GSK3 inhibitor” value was “did not increase the toxicity of asparaginase”. Further, in the data set with CCRF-CEM cells (CHIR99021 1 μM, 8 days, vincristine, 6-mercaptopurine, dexamethasone, doxorubicin), the “sensitization to other antileukemic drugs” value is given as “Nor did it sensitize leukemic cells to other commonly used antileukemic drugs”. Also, the “toxicity of GSK3 inhibition combined with asparaginase to normal colonic cells” value with CCD-841 cells is “little toxicity”. Besides, the sensitization to asparaginase entry in the data set on HCT-15 cells and with SW-480 cells was “sufficient to induce asparaginase sensitization” throughout. In [4], the asparaginase sensitization entry is “induced significant asparaginase sensitization”.
Consider `CO[C@H]1C[C@@H]2CC[C@@H](C)[C@@](O)(O2)C(=O)C(=O)N2CCCC[C@H]2C(=O)O[C@H]([C@H](C)C[C@@H]2CC[C@@H](OCCO)[C@H](OC)C2)CC(=O)[C@H](C)/C=C(\C)[C@@H](O)[C@@H](OC)C(=O)[C@H](C)C[C@H](C)/C=C/C=C/C=C/1C` [RAD001], for which the “effect on Wnt-induced sensitization to asparaginase” value with CCRF-CEM cells (8 days) is on record as “had no effect”.
For `CC(C)C[C@H](NC(=O)[C@H](Cc1ccccc1)NC(=O)c1cnccn1)B(O)O` [bortezomib], the single-agent toxicity result with CCRF-CEM cells (10 nM dose) is recorded as “lacked single-agent toxicity”. For the same molecule, the “sensitization to asparaginase by proteasome inhibition” value in the data set with CCRF-CEM cells (bortezomib 10 nM, 8 days) is on record as “phenocopied Wnt-induced sensitization to asparaginase”. Also, the “toxicity (viability), dose range” value with CCRF-CEM cells (indicated doses, 48 hours (FIG. 10)) was “highly toxic at intermediate doses”.

B1: Wnt3A: Wnt ligand, recombinant protein (R&D systems) (protein, UniProt P56704 19-352, looked up)
Protein Wnt-3a: SYPIWWSLAVGPQYSSLGSQPILCASIPGLVPKQLRFCRNYVEIMPSVAEGIKIGIQECQHQFRGRRWNCTTVHDSLAIFGPVLDKATRESAFVHAIASAGVAFAVTRSCAEGTAAICGCSSRHQGSPGKGWKWGGCSEDIEFGGMVSREFADARENRPDARSAMNRHNNEAGRQAIASHMHLKCKCHGLSGSCEVKTCWWSQPDFRAIGDFLKDKYDSASEMVVEKHRESRGWVETLRPRYTYFKVPTERDLVYYEASPNFCEPNPETGSFGTRDRTCNVSSHGIDGCDLLCCGRGHNARAERRREKCRCVFHWCCYVSCQECTRVYDVHTCK
With B1, the “sensitization to asparaginase by Wnt ligand” value with CCRF-CEM cells (100 ng/ml Wnt3A, 8 days) is “phenocopied”.

The values are drawn from patent publication US20260151467A1, “METHOD FOR TREATING CANCER” (THE CHILDREN'S MEDICAL CENTER CORPORATION, priority 2018, published 2026).
